Key:
[1] = target: T1, human cloned 5-HT7 receptor (Homo sapiens, UniProt P34969); assay: Radioligand binding assay at human cloned 5-HT7 receptors ([3H]-5-CT competition); details: read-out: 5-HT7 (pKi) (converted)
T1 construct: expressed in transfected cells
Protocol: Radioligand Binding Assay At Human Cloned 5-HT7 Receptors
Functionality assays on the 5-HT7 receptor were done according to Jasper et al [Br. J. Pharmacol. 1997, 122, 126.] with minor modifications. The test is a competition assay based on binding of [^3H]-5-CT at human cloned 5-HT7 receptor. In 0.5 mL of incubation buffer (50 mM Tris-HCl, 10 mM MgSO4 and 0.5 mM EDTA, pH 7.4) were suspended 34 μg of membranes, 1.5 nM [^3H]-5-CT, the drugs or reference compound (six to nine concentrations). The samples were incubated for 120 min at 27° C. The incubation was stopped by rapid filtration on Whatman GF/C glass microfiber filters (pre-soaked in 0.3% polyethylenimine for 30 min). The filters were washed with 3×1 mL of ice-cold buffer (50 mM Tris-HCl, pH 7.4). Nonspecific binding was determined in the presence of 10 μM 5-CT. Approximately 90% of specific binding was determined under these conditions.
(§1) Competition binding data were analyzed using the GraphPad Prism Software (GraphPad Software, Inc., San Diego, Calif., USA). The value for the inhibition constant, Ki, was calculated by using the Cheng-Prusoff equation [Anal. Biochem. 1980, 107, 200-239].

[2] = target: T2, Human 5-HT1A serotonin receptors (Homo sapiens, UniProt P08908); assay: Radioligand binding assay at human cloned 5-HT1A receptor ([3H]-8-OH-DPAT); details: compound at 10−7M
T2 construct: expressed in transfected cells; host or cells: HEK293-EBNA
T2 sequence (P08908 1-422): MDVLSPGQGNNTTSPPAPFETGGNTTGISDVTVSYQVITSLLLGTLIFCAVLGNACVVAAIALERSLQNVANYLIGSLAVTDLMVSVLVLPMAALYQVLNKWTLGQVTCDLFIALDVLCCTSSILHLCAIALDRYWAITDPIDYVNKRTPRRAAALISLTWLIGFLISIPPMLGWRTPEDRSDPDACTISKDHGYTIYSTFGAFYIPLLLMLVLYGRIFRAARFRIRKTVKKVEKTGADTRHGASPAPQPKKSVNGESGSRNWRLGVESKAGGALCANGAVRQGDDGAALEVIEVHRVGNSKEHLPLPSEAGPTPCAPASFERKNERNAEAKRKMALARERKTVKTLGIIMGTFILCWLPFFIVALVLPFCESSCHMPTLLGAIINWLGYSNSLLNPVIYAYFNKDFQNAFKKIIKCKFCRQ
Protocol: Radioligand Binding Assay At Human Cloned 5-HT1A Receptor
Human 5-HT1A serotonin receptors stably expressed in HEK293-EBNA cells were radiolabeled with 1.0 nM [^3H]-8-OH-DPAT [J. Biol. Chem. 1989, 264, 14848]. Samples containing 32 μg of membrane protein, different concentrations of each compound ranging from 0.1 nM to 10 μM were incubated in a final volume of 500 μL of 50 mM Tris-HCl pH 7.4, 5 mM MgSO4 for 120 min at […]. After this incubation time, samples were filtered through Whatman GF/C glass microfiber filters pre-soaked in polyethylenimine 0.5% for at least 30 min prior to use. The filters were washed twice with 1 ml of ice-cold buffer (50 mM Tris-HCl, pH 7.4). Nonspecific binding was determined in the presence of 10 μM 5-HT.
as §1

[3] = In vitro metabolic stability using liver S9 fractions; assay type: in vitro ADME; details: 10 μM compound, 1 mg/ml rat liver S9, 30 min at 37° C.
Protocol: Determination of in vitro Metabolic Stability Using Liver S9 Fractions
Tested compounds (10 μM) were incubated with rat liver S9 fractions (1 mg/ml), liver S9 fractions are subcellular fractions that contain drug-metabolizing enzymes such as cytochromes P450, flavin monooxygenases, and UDP glucuronyl transferases.
The incubation was performed in 100 mM phosphate buffer (pH 7.4) containing 1.3 mM of NADP+, 3.3 mM glucose 6-phosphate and 0.4 U/ml glucose 6-phosphate dehydrogenase, 3.3 mM MgCl2 in a total volume of 1 mL. Incubations were commenced with the addition of glucose 6-phosphate dehygrogenase and carried out for 30 min. at 37° C. The reaction was stopped by adding 1 mL of cooled acetonitrile. The samples were centrifuged at 4600 rpm for 10 min at 4° C. The supernatant was separated and the acetonitrile phase was analyzed by using a reversed-phase HPLC equipped with a Perkin-Elmer series 200 LC pump and a Perkin-Elmer 785A UV/VIS detector. UV signals were monitored and obtained peaks integrated using a personal computer running Perkin-Elmer Turbochrom Software. The column used was a Phenomenex Gemini C-18 (250×4.6 mm, 5 μm particle size). The samples were eluted with ammonium formate (20 mM; pH 6.7) and acetonitrile 80:20 v/v at a flow rate of 1 mL/min and at the appropriate UV wavelength. The sample injection volume was 20 μL.
This assay provides information on the xenobiotic metabolism of the tested compounds; the results obtained are reported in table 1.

[4] = after 20 minutes following i.p injection; cited from earlier work

T1 sequence (P34969 whole entry): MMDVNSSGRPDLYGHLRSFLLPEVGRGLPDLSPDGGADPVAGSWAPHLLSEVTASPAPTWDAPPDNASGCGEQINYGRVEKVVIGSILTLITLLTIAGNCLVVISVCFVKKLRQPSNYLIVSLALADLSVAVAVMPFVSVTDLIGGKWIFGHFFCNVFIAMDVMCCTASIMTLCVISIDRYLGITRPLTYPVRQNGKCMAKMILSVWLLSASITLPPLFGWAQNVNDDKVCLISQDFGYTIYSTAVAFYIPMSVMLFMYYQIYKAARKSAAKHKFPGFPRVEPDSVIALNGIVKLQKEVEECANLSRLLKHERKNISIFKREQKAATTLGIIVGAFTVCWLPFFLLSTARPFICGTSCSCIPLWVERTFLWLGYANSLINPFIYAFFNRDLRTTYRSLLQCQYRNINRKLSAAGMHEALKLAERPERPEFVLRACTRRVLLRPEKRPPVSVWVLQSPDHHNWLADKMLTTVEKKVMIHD

SMILES | Ki [1] [nM] | 5-HT1A (% displacement of radioligand at 10−7M conc.) [2] [%] | % parent compound after incubation with rat liver S9 fractions [3] [%] | plasma and brain concentration [4]
FCCOc1ccc(OCCN2CCN(c3ncccc3-c3ccccn3)CC2)cc1 [Example 18, 1-[2-[4-(2-Fluoroethoxy)phenoxy]ethyl]-4-[3-(2-pyridyl)-2-pyridyl]piperazine] | 20 | 20 | 68 | 
CSc1ccccc1N1CCN(CCCCCC(=O)NC2CCCc3ccccc32)CC1 (stereo not shown) [LP-44] |  |  |  | undetectable
COc1cccc(C(F)CN2CCN(c3ncccc3-c3ccccn3)CC2)c1 (stereo not shown) [Example 12, 1-[2-Fluoro-2-(3-methoxyphenyl)ethyl]-4-[3-(2-pyridyl)-2-pyridyl)piperazine] | 6.92 | 25 | 84 | 
COc1cccc(OCCN2CCN(c3ncccc3-c3ccccn3)CC2)c1 [Example 15, 1-[2-(3-Methoxyphenoxy)ethyl]4-[3-(2-pyridyl)-2-pyridyl]piperazine] | 5.37 | 35 | 78 | 

Further lines, with some results ahead:

Ki [1] [nM] | 5-HT1A (% displacement of radioligand at 10−7M conc.) [2] [%] | % parent compound after incubation with rat liver S9 fractions [3] [%] | SMILES | plasma and brain concentration [4]
16.6 | 46 | 35 | COc1ccc(OCC(O)CN2CCN(c3ccccc3-c3ccccc3)CC2)cc1 (stereo not shown) [Example 1, 1-(4-Methoxyphenoxy)-3-[4-(2-biphenyl)piperazin-1-yl] propan-2-ol] | 
7.59 | 26 | 82 | COc1ccc(OCC(O)CN2CCN(c3ncccc3-c3ccncc3)CC2)cc1 (stereo not shown) [Example 5, 1-(4-Methoxyphenoxy)-3-[4-[3-(4-pyridyl)-2-pyridyl]piperazin-1-yl]propan-2-ol] | 
1.62 | 37 | 55 | COc1ccc(-c2ccccc2N2CCN(CCCCCC(=O)NCc3ccccn3)CC2)cc1 [Example 21, 4-[2-(4-Methoxyphenyl)phenyl]-N-(2-pyridinylmethyl)-1-piperazinehexanamide] | 
5.75 | 31 | 80 | COc1ccc(CNC(=O)CCCCCN2CCN(c3ncccc3-c3ccccn3)CC2)cc1 [Example 24, N-[(4-Methoxyphenyl)methyl]-6-[4-[3-(2-pyridyl)-2-pyridyl]piperazin-1-yl]hexanamide] | 
